Laboratory results taken from patent US7435431B2, “Method for controlling body weight in estrogen-insufficient women” (Abbott Laboratories, priority 2004, dated 2008).

Tests used:
Format in all cases: in vivo, rat
[1] = tested on: ovariectomized (OVX) rats; test: Experiment III: micro-computed tomography
Protocol: (§1) After five days of acclimatization, study animals were randomly assigned to one of 15 groups (n=10/group) and placed in individual cages. Rats were either sham-operated (SHAM) or ovariectomized (OVX) and fed casein-based diets for forty days. To ensure that sufficient bone loss has occurred in the OVX animals, bone mineral density was assessed via Dual Energy X-ray Absorptiometry (DEXA) prior to treatment. Groups 1 and 2 were fed casein-based diets throughout the entire length of the study and served as the control groups. Treatments were initiated for Groups 3-15 forty days post ovariectomy surgery and followed for 60 days. Bone mineral density was assessed before and after treatments. Two days prior to the termination of the study, rats were placed in individual metabolic cages and urine was collected from 18:00 h-6:00 h. During this period, the rats had no access to food. Urine was collected in acid-washed tubes, acidified with 0.03 ml of 6 mol/L of HCl per ml of urine and the total volume was measured. At the end of the study, the rats were anesthetized with ketomine and xylazine (intraperitoneally; 100 mg and 5 mg/kg body weight, respectively) and exsanguinated. Blood was collected, serum separated and aliquoted in small samples. All urine and plasma samples were frozen at −20° C. until analyses. Femurs and 3-5 lumbar spine were dissected out for bone analyses. Initial and weekly body weights were measured. Sham animals were fed ad libitum and their precise food intakes were measured every three days. Before each feeding, the food remaining was weighed and the amount ingested was calculated. Rats in the other groups were pair-fed to the mean intake of the sham animals and had free access to deionized water.
(§2) The design was a randomized, prospective, single-blind, positive controlled, parallel study. Control groups were fed a casein-based diet. Treatment groups were fed semi-purified diets containing casein, fructooligosaccharides, whole dried plum powder or dried plum polyphenol solids, dried plum juice solids, dried plum puree solids, dried plum skin solids or raisin solids or fig solids or date solids or blueberry solids or HMB. The treatment groups are outlined in following table:
(§3) One hundred fifty, (n=10/group) ninety day old Harlan Sprague-Dawley, 210 gm, female rats were purchased from Harlan Sprague Dawley Inc. (Indianapolis, Ind.). Upon arrival at the institution, rats were individually housed in stainless steel wire mesh cages in an environmentally controlled animal laboratory at 25° C. with a 12 h light-dark cycle. The rats had free access to deionized water and semi-purified diets. They were handled according to National Institutes of Health guidelines for humane treatment of experimental animals.
The composition of the semi-purified casein-based diets are described in the following table. To ensure equivalency, the diets were assayed for carbohydrate, protein, fat, calcium and phosphorus content prior to the feeding protocol. All diets were prepared to be isonitrogenous, isocaloric and equivalent in calcium and phosphorus content. The diets consisted of approximately 22% protein, 67% carbohydrate and 11% fat. […]

[2] = Experiment III: body weight gain, fat gain and food intake
Protocol: (§4) After five days of acclimatization, study animals were randomly assigned to one of 15 groups (n=10/group) and placed in individual cages. Rats were either sham-operated (SHAM) or ovariectomized (OVX) and fed casein-based diets for forty days. To ensure that sufficient bone loss has occurred in the OVX animals, bone mineral density was assessed via Dual Energy X-ray Absorptiometry (DEXA) prior to treatment. Groups 1 and 2 were fed casein-based diets throughout the entire length of the study and served as the control groups. Treatments were initiated for Groups 3-15 forty days post ovariectomy surgery and followed for 60 days. Bone mineral density was assessed before and after treatments. […] Urine was collected in acid-washed tubes, acidified with 0.03 ml of 6 mol/L of HCl per ml of urine and the total volume was measured. […] Initial and weekly body weights were measured. Sham animals were fed ad libitum and their precise food intakes were measured every three days. Before each feeding, the food remaining was weighed and the amount ingested was calculated. […]
(§5) The composition of the semi-purified casein-based diets are described in the following table. […] Sham animals were fed ad libitum and their precise food intakes were measured every three days. Before each feeding, the food remaining was weighed and the amount ingested was calculated. […]

[3] = tested on: ovariectomized (OVX) rats; test: Experiment III: bone mineral density and bone mineral content (DEXA)
Protocol: as §1, §2, §3
The composition of the semi-purified casein-based diets are described in the following table. To ensure equivalency, the diets were assayed for carbohydrate, protein, fat, calcium and phosphorus content prior to the feeding protocol. All diets were prepared to be isonitrogenous, isocaloric and equivalent in calcium and phosphorus content. The diets consisted of approximately 22% protein, 67% carbohydrate and 11% fat. The treatment diets also contained 7.5% or 5% (w/w) dried plum powder (Sunsweet Growers, Inc., Pleasanton, Calif.), or 7.5% (w/w) dried plum solids from juice concentrate (Sunsweet Growers, Inc., Pleasanton, Calif.), or 7.5% (w/w) dried plum solids from puree (Sunsweet Growers, Inc., Pleasanton, Calif.), or 7.5% (w/w) dried plum solids from pulp/skins (Sunsweet Growers, Inc., Pleasanton, Calif.), or dried plum polyphenols equivalent to 7.5% (w/w) dried plum powder, or 7.5% (w/w) raisin solids (Mid America), or 7.5% (w/w) fig solids (Mid America), or 7.5% (w/w) date solids (Mid America), or 7.5% (w/w) blueberry solids (Mid America), or 0.25% (w/w) HMB (Metabolic Technologies, Inc., Ames, Iowa) and 5% or 2% (w/w) short chain fructooligosaccharides (NutraFlora®, FOS Golden Technologies, Inc). […]

[4] = tested on: ovariectomized (OVX) rats; test: Experiment III: serum, urine and bone mineral and biochemical measures
Protocol: as §4, §5

Compound: CC(C)(O)CC(=O)O [HMB, beta-hydroxy beta methylbutyrate]
- Bone Volume/Total Volume (Ranked) Mean ± SE [1]: 0.1141 ± 0.00658b
- Connective Density (Ranked) Mean ± SE [1]: 32.865 ± 2.472b
- Structural Model Index (Ranked) Mean ± SE [1]: 1.931 ± 0.04093a
- Trabecular No. (Ranked) Mean ± SE [1]: 1.649 ± 0.078c 1/mm
- Trabecular separation (Ranked) Mean ± SE [1]: 0.6555 ± 0.03361a mm
- Body Weight Gain during Treatment period Mean ± SE ([2]; OVX rats, pair-fed to SHAM): 29.0 ± 6.9
- fat gain during the treatment period ([2]; compared to OVX-control): significantly less fat gain
- effects on BMD [3]: no significant effects
- reversal of osteopenia [3]: did not reverse established osteopenia
- Bone mineral content (LS Mean ± SE) Femur ([3]; OVX rats): 0.4155 ± 0.00996
- Bone mineral content (LS Mean ± SE) Spine ([3]; OVX rats): 0.1187 ± 0.00419
- Bone mineral content (LS Mean ± SE) Whole body ([3]; OVX rats): 9.7590 ± 0.1323
- Bone mineral density (Mean ± SE) Femur ([3]; OVX rats): 0.2198 ± 0.00293b
- Bone mineral density (Mean ± SE) Spine ([3]; OVX rats): 0.2341 ± 0.0035bc
- Change in Bone mineral density (from Baseline) Whole body ([3]; OVX rats, baseline to final): 0.00298 ± 0.00144ab
- Bone mineral density (Mean ± SE) Whole body ([3]; OVX rats, casein-based diets): 0.1599 ± 0.0016b
- Serum IGF-1 levels compared to OVX-control [4]: significant increases
